Data published in ChEMBL document CHEMBL5154730, “A covalent strategy to target intrinsically disordered proteins: Discovery of novel tau aggregation inhibitors” (Eur J Med Chem, 2022).
The source made the active and inactive calls. The calls are words filed in the database; no cut-off is given here.

Experiments:
[1] = target: Microtubule-associated protein tau (Homo sapiens) (UniProt P10636); assay: Inhibition of tau K18 domain (unknown origin) assessed as inhibition of heparin-induced aggregation by measuring protein aggregation rate at 10 uM by thioflavin-T fluorescence assay relative to control; parameters: scale not given: the % may be the effect or the level left
Microtubule-associated protein tau (Homo sapiens), sequence (P10636 whole entry, the tested form may be a part): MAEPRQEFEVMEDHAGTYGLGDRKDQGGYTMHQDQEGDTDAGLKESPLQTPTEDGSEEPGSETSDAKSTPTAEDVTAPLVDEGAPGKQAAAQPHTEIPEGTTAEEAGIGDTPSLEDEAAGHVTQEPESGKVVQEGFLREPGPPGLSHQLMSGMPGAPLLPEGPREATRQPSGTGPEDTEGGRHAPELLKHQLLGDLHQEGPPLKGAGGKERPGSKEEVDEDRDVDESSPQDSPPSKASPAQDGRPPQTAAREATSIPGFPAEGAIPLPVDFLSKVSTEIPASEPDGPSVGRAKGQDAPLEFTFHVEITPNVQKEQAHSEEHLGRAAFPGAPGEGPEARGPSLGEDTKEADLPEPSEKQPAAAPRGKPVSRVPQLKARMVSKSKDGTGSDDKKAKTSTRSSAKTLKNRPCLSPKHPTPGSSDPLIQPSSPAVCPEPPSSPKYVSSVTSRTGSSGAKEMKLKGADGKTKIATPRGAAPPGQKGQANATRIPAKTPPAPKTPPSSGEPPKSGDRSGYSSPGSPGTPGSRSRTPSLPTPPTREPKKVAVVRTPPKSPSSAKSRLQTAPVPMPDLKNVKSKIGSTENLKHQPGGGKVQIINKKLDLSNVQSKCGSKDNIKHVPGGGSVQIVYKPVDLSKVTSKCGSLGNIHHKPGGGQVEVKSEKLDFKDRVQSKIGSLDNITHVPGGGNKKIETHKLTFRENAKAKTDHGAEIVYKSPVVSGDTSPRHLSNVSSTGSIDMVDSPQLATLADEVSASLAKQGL

[2] = target: Microtubule-associated protein tau (Homo sapiens) (UniProt P10636); assay: Inhibition of tau K18 domain (unknown origin) assessed as inhibition of heparin-induced aggregation by measuring protein aggregation rate at 50 uM by thioflavin-T fluorescence assay relative to control; parameters: scale not given: the % may be the effect or the level left
[3] = target: Microtubule-associated protein tau (Homo sapiens) (UniProt P10636); assay: Covalent binding affinity to tau K18 domain monomer (unknown origin) assessed as labelling at Cys322 residue incubated for 24 hrs and measured following trypsin digestion by LC-MS/MS analysis
[4] = target: Microtubule-associated protein tau (Homo sapiens) (UniProt P10636); assay: Inhibition of tau K18 domain (unknown origin) assessed as inhibition of heparin-induced aggregation by measuring protein aggregation rate at 1000 uM by thioflavin-T fluorescence assay relative to control; parameters: scale not given: the % may be the effect or the level left
[5] = target: Microtubule-associated protein tau (Homo sapiens) (UniProt P10636); assay: Covalent binding affinity to tau K18 domain monomer (unknown origin) assessed as labelling at Cys291 residue incubated for 24 hrs and measured following trypsin digestion by LC-MS/MS analysis
[6] = target: Microtubule-associated protein tau (Homo sapiens) (UniProt P10636); assay: Binding affinity to tau K18 domain (unknown origin) assessed as cysteine labelling efficiency by measuring free thiol ratio at 200 uM incubated for 24 hrs by Ellmans method relative to control
[7] = target: Microtubule-associated protein tau (Homo sapiens) (UniProt P10636); assay: Inhibition of tau K18 domain (unknown origin) assessed as inhibition of heparin-induced aggregation by measuring protein aggregation rate at 100 uM by thioflavin-T fluorescence assay relative to control; parameters: scale not given: the % may be the effect or the level left
Homo sapiens = species: Homo sapiens; assay: Inhibition of hexahistidine-tagged tau K18 domain C291S/C322S mutant (unknown origin) expressed in Escherichia coli BL21 (DE3) assessed as inhibition of heparin-induced aggregation by measuring protein aggregation rate at 10 uM by thioflavin-T fluorescence assay relative to control; parameters: scale not given: the % may be the effect or the level left
[8] = target: Microtubule-associated protein tau (Homo sapiens) (UniProt P10636); assay: Inhibition of tau K18 domain (unknown origin) assessed as inhibition of heparin-induced aggregation by measuring protein aggregation rate at 250 uM by thioflavin-T fluorescence assay relative to control; parameters: scale not given: the % may be the effect or the level left
[9] = target: Microtubule-associated protein tau (Homo sapiens) (UniProt P10636); assay: Inhibition of tau K18 domain (unknown origin) assessed as inhibition of heparin-induced aggregation by measuring protein aggregation rate at 500 uM by thioflavin-T fluorescence assay relative to control; parameters: scale not given: the % may be the effect or the level left
[10] = target: Microtubule-associated protein tau (Homo sapiens) (UniProt P10636); assay: Inhibition of tau K18 domain (unknown origin) assessed as inhibition of heparin-induced aggregation by measuring increase in brightness by transmission electron microscopy
[11] = target: Microtubule-associated protein tau (Homo sapiens) (UniProt P10636); assay: Inhibition of tau K18 domain (unknown origin) assessed as inhibition of heparin-induced aggregation by measuring reduction in intensity at 215 nm with random coil conformation by CD spectrometry
[12] = target: Microtubule-associated protein tau (Homo sapiens) (UniProt P10636); assay: Binding affinity to tau K18 domain (unknown origin) assessed as cysteine labelling at 250 uM incubated for 18 hrs by 15N-HSQC NMR spectroscopy

| Compound | Activity [1] | Activity [6] | Activity (Homo sapiens) | other results |
| --- | --- | --- | --- | --- |
| C=CS(=O)(=O)c1ccccc1 | 97.7% |  |  |  |
| C=CS(=O)(=O)Cc1c2ccccc2cc2ccccc12 | 21.3% | 34.4% | 69.4% | Activity [2]: 78.2%; Activity [3]: Active; Activity [4]: 21.3%; Activity [5]: Active; Activity [7]: 72%; Activity [8]: 54.1%; Activity [9]: 43.9% |
| C=CS(=O)(=O)NCCNC(=O)O[C@H]1CC[C@@]2(C)C(=CC[C@H]3[C@@H]4CC[C@H]([C@H](C)CCCC(C)C)[C@@]4(C)CC[C@@H]32)C1 | 39.7% | 56.7% | 100% | inhibition [10]: Active |
| C=CS(=O)(=O)Cc1ccc(-c2ccc(/C=C3/SC(=S)N(CCC(=O)OCC)C3=O)o2)cc1 | 29.2% | 44.7% | 83.4% | Activity [2]: 75.4%; Activity [4]: 29.2%; Activity [7]: 60.3%; inhibition [11]: Active; Activity [8]: 50.8%; Activity [9]: 40.1% |
| C=CS(=O)(=O)c1cc(C(F)(F)F)cc(C(F)(F)F)c1 | 107% |  |  |  |
| C=CS(N)(=O)=O | 110% |  |  |  |
| C=CS(=O)(=O)Nc1ccc(C(=O)NCCCCCC(=O)N[C@@H](CCC(=O)O)C(=O)N[C@@H](C)C(=O)N[C@@H](C)C(=O)N[C@@H](CCC(=O)O)C(=O)N[C@@H](C)C(=O)N[C@@H](CCCCN)C(=O)N[C@@H](C)C(=O)N[C@@H](C)C(=O)NC(CCCCn2cc(CNC(=O)[C@H](Cc3c[nH]c4ccccc34)NC3C(=O)c4ccccc4C(=O)C3Cl)nn2)C(=O)O)cc1 (stereo partly drawn) | 15.7% | 39.7% | 57.9% | inhibition [10]: Active; Activity [5]: Active |
| C=CS(=O)(=O)Cc1ccc(C(=O)c2ccccc2)cc1 | 97.3% |  |  |  |
| C=CS(=O)(=O)Cc1cccc2cccnc12 | 102% |  |  |  |
| H-DVWMINKKRK-OH | 38.1% |  | 29.4% |  |
| C=CS(=O)(=O)NCc1cc(C(F)(F)F)cc(C(F)(F)F)c1 | 96.9% |  |  |  |
| C=CS(=O)(=O)Cc1cc(C(F)(F)F)cc(C(F)(F)F)c1 | 39.8% | 66.3% | 86.7% | Activity [2]: 94.4%; Activity [3]: Active; Activity [4]: 39.8%; Activity [5]: Active; Activity [12]: Active; Activity [7]: 75.3%; Activity [8]: 62.9%; Activity [9]: 43.1% |
| C=CS(=O)(=O)Cc1ccc2ccccc2c1 | 111% |  |  |  |
